Experiments:
[1] = tested on: Sodium, Site 2; experiment: CNS side effect panel, [^3H]Batrachotoxin A 20-a-Benzo; format: binding; settings: pentamidine 1.0E^-5 M
[2] = tested on: Cholecystokinin, CCK2 (CCKB); experiment: CNS side effect panel, [^125I]CCK-8; format: binding; settings: pentamidine 1.0E^-5 M
[3] = tested on: Glutamate,NMDA,Glycine (Stry-insens Site) (Ionot); experiment: CNS side effect panel, [^3H]-MDL-105,519; format: binding; settings: pentamidine 1.0E^-5 M
[4] = tested on: Acid sensing ion channels (ASIC); settings: Potency 1b>3>2a>or = 1a; cited from earlier work
[5] = tested on: GABA-B; experiment: CNS side effect panel, [^3H]CGP 54626A; format: binding; settings: pentamidine 1.0E^-5 M
[6] = tested on: Potassium Channel, Ca2+ Act., VI; experiment: CNS side effect panel, [^125I]Apamin; format: binding; settings: pentamidine 1.0E^-5 M
[7] = tested on: Delta2glutamate receptor; settings: Voltage independent; cited from earlier work
[8] = tested on: Potassium Channel, ATP-Sensitive; experiment: CNS side effect panel, [^3H]Glibenclamide; format: binding; settings: pentamidine 1.0E^-5 M
[9] = tested on: Adrenergic, Beta, Non-selective; experiment: CNS side effect panel, [^3H]DHA; format: binding; settings: pentamidine 1.0E^-5 M
[10] = tested on: Glycine, Strychnine-sensitive; experiment: CNS side effect panel, [^3H]Strychnine; format: binding; settings: pentamidine 1.0E^-5 M
[11] = tested on: Serotonin, Non-selective; experiment: CNS side effect panel, [^3H] LSD; format: binding; settings: pentamidine 1.0E^-5 M
[12] = tested on: Glutamate, AMPA Site (Ionotropic); experiment: CNS side effect panel, [^3H]AMPA; format: binding; settings: pentamidine 1.0E^-5 M
[13] = molecular target: T1, Dopamine, D2s (h) (Homo sapiens, UniProt P14416); experiment: CNS side effect panel, [^3H]-Raclopride; format: binding; settings: pentamidine 1.0E^-5 M
T1 construct: purchased Perkin-Elmer Science Discovery Systems (NovaScreen), customised CNS screening panel
T1 sequence (P14416 1-414 isoform P14416-2): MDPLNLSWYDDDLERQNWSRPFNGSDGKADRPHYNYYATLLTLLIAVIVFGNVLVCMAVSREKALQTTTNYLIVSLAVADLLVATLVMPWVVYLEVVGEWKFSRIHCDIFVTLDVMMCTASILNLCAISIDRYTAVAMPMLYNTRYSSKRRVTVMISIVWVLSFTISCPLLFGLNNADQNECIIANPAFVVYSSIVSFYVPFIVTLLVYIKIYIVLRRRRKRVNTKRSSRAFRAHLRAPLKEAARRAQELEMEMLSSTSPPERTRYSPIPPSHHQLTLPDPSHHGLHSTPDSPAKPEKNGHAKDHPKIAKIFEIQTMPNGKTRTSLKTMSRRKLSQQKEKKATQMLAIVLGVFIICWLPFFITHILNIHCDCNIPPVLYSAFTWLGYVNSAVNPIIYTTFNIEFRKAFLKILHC

[14] = tested on: NMDA (Ionotropic) glutamate receptor; settings: Voltage dependent; cited from earlier work
[15] = tested on: Glutamate, Kainate Site (Ionotropic); experiment: CNS side effect panel, [^3H]Kainic acid; format: binding; settings: pentamidine 1.0E^-5 M
[16] = tested on: Adrenergic, Alpha 2, Non-selective; experiment: CNS side effect panel, [^3H]RX821002; format: binding; settings: pentamidine 1.0E^-5 M
[17] = tested on: fibrinogen binding to GP11b/IIIa; settings: Inhibits fibrinogen binding to GP11b/IIIa; cited from earlier work
[18] = molecular target: cloned hKir2.1 potassium channels (Homo sapiens, UniProt P63252); experiment: cell-based
Chain of cloned hKir2.1 potassium channels (P63252 whole entry): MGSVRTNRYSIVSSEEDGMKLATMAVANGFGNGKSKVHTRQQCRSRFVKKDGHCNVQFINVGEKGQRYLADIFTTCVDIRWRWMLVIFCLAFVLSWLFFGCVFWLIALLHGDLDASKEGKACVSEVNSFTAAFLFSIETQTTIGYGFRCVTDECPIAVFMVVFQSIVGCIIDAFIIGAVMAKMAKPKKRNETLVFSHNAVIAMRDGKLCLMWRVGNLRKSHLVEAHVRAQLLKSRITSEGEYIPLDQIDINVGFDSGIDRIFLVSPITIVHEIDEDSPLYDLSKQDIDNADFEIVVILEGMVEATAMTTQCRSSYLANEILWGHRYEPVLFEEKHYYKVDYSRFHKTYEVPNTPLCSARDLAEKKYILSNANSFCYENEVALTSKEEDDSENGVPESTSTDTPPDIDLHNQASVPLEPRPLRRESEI

[19] = tested on: Serine proteases; settings: cited from earlier work
[20] = tested on: GABA A, BDZ, alpha 1 site; experiment: CNS side effect panel, [^3H]Flunitrazepam; format: binding; settings: pentamidine 1.0E^-5 M
[21] = tested on: GABA A, Agonist Site; experiment: CNS side effect panel, [^3H]GABA; format: binding; settings: pentamidine 1.0E^-5 M
[22] = tested on: Corticotropin Releasing Factor, Non-selective; experiment: CNS side effect panel, [^125I]Tyr0-oCRF; format: binding; settings: pentamidine 1.0E^-5 M
[23] = molecular target: T2, Endothelin, ET-B (h) (Homo sapiens, UniProt P24530); experiment: CNS side effect panel, [^125I]-Endothelin-1; format: binding; settings: pentamidine 1.0E^-5 M
T2 construct: purchased Perkin-Elmer Science Discovery Systems (NovaScreen), customised CNS screening panel
T2 sequence (P24530 27-442): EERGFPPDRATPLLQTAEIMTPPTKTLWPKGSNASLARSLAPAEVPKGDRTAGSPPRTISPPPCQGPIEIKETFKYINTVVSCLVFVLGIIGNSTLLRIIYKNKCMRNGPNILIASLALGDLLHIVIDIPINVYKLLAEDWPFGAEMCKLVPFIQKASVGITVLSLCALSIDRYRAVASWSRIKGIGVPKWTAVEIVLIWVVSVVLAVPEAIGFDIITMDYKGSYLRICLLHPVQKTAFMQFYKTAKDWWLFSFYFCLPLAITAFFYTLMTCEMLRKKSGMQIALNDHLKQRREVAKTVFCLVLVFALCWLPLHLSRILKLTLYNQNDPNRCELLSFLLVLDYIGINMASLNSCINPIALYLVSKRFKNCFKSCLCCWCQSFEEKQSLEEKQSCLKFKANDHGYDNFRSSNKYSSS

[24] = tested on: Glutamate, NMDA Agonist Site (Ionotropic); experiment: CNS side effect panel, [^3H]CGP 39653; format: binding; settings: pentamidine 1.0E^-5 M
[25] = tested on: Norepinephrine Transporter; experiment: CNS side effect panel, [^3H]Nisoxetine; format: binding; settings: pentamidine 1.0E^-5 M
[26] = tested on: Nitric Oxide, NOS (Neuronal-Binding); experiment: CNS side effect panel, [^3H]NOARG; settings: pentamidine 1.0E^-5 M
[27] = tested on: Sigma, Non-selective; experiment: CNS side effect panel, [^3H]DTG; format: binding; settings: pentamidine 1.0E^-5 M
[28] = molecular target: T3, Opioid, Orphanin, ORL1 (h) (Homo sapiens, UniProt P41146); experiment: CNS side effect panel, [^3H] Nociceptin; format: binding; settings: pentamidine 1.0E^-5 M
T3 construct: purchased Perkin-Elmer Science Discovery Systems (NovaScreen), customised CNS screening panel
T3 sequence (P41146 whole entry): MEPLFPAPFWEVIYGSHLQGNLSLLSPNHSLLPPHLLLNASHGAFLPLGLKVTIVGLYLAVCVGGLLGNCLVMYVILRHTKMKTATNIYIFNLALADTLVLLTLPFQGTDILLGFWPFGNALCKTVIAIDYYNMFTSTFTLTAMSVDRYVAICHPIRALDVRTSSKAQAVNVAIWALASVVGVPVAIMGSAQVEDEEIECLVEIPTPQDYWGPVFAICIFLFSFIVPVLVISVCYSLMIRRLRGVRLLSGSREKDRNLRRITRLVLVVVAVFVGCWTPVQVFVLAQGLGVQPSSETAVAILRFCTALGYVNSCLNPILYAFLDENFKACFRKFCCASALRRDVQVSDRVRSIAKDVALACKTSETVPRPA

[29] = tested on: Adenosine, Non-selective; experiment: CNS side effect panel, [^3H]NECA; format: binding; settings: pentamidine 1.0E^-5 M
[30] = tested on: Trypanosoma brucei blood stream form trypomastigotes (T. b. brucei strain S427); experiment: Trypanocidal activity in vitro (Alamar Blue); format: cell-based
[31] = tested on: P-gp (human MDR1); experiment: in vitro; settings: dog
[32] = human, in vivo; cited from earlier work
[33] = molecular target: Opioid, Non-selective; experiment: CNS side effect panel, [^3H]Naloxone; format: binding
[34] = tested on: Melatonin, Non-selective; experiment: CNS side effect panel, [^125I]-2-Iodomelatonin; format: binding; settings: pentamidine 1.0E^-5 M
[35] = tested on: PRL phosphatases; settings: Oncology target; cited from earlier work
[36] = tested on: Adrenergic, Alpha 1, Non-selective; experiment: CNS side effect panel, [^3H]7-MeOxy-Prazosin; format: binding; settings: pentamidine 1.0E^-5 M
[37] = tested on: Imidazoline2 receptor; settings: 3H-idazoxan binding; cited from earlier work
[38] = molecular target: Muscarinic, Non-selective, Central; experiment: CNS side effect panel, [^3H]QNB; format: binding
[39] = In vivo pharmacokinetic brain distribution with [^3H(G)]pentamidine; design: species or system BALB/c mice; settings: 2 hours post-injection i.v., corrected for vascular/[^14C]sucrose space
[40] = previously published data; cited from earlier work
[41] = read-out: % of bsf trypomastigotes inhibited

With `N=C(N)c1ccc(OCCCCCOc2ccc(C(=N)N)cc2)cc1` [Pentamidine, 1,5-bis-4ρ-amidinophenoxypentane] the “Percent Inhibition” value [1] was 46.94%, the “Percent Inhibition” value [2] was 0.09% and the “Percent Inhibition” value [3] was -17.52%. For the same compound, the Affinity [4] was 38 µM, the “Percent Inhibition” value [5] was 10.74% and the “Percent Inhibition” value [6] was 2.07%. The Affinity [7] was 5 µM, the “Percent Inhibition” value [8] was 6.07% and the “Percent Inhibition” value [9] was 55.37%. For the same compound, the “Percent Inhibition” value [10] was -0.22%, the “Percent Inhibition” value [11] was 0.09% and the “Percent Inhibition” value [12] was 1.34%. For the same compound, the “Percent Inhibition” value [13] was 20.12%, the Affinity [14] was 0.2 µM and the “Percent Inhibition” value [15] was -13.63%. The “Percent Inhibition” value [16] was 56.14%, the Affinity [17] was 1.1 µM and the IC50 [18] was over 10000 nM. The Affinity [19] was 4000 µM, the “Percent Inhibition” value [20] was 20.54% and the “Percent Inhibition” value [21] was 31.10%. For the same compound, the “Percent Inhibition” value [22] was 17.05%, the “Percent Inhibition” value [23] was 4.50% and the “Percent Inhibition” value [24] was 5.99%. For the same compound, the “Percent Inhibition” value [25] was 21.39%, the “Percent Inhibition” value [26] was 12.98% and the “Percent Inhibition” value [27] was 6.50%. The “Percent Inhibition” value [28] was 36.62%, the “Percent Inhibition” value [29] was 1.28% and the inhibition at 5.7 pM [30, 41] was 4.1%. It also gave an inhibition at 17 pM [30, 41] of 35%, an inhibition at 51 pM [30, 41] of 65.3% and an inhibition at 0.3 µM [30, 41] of 97.4%. The inhibition at 1 µM [30, 41] was 98.3%, the IC50 ([30]; read-out: IC50 (± 95% CI) of pentamidine) was 0.0211 nM and the Papp B→A at 1 h, 10 µM ([31]; MDCK-MDR1, pH 7.4, Papp B2A Replicate 1) was 0.336 ×10⁻⁶ cm/s. The Papp B→A at 1 h, 10 µM ([31]; MDCK-MDR1, pH 7.4, Papp B2A Replicate 2) was 0.357 ×10⁻⁶ cm/s, the Papp B→A at 1 h, 20 µM ([31]; MDCK-MDR1, pH 7.4, Papp basal to apical) was 0.418 ×10⁻⁶ cm/s and the “incidence of diabetes mellitus” value [32] was “occasional but irreversible”. The incidence of hypoglycaemia [32] was 5-40%, the Ki ([33]; Opioid, concentration-response) was 1410 nM and the “Percent Inhibition” value ([33]; pentamidine 1.0E^-5 M) was 76.00%. For the same compound, the “Percent Inhibition” value [34] was 23.45%, the Affinity [35] was 3 µM and the “Percent Inhibition” value [36] was 100.77%. For the same compound, the Affinity [37] was 0.014 µM, the Ki ([38]; Muscarinic (central), concentration-response) was 281 nM and the “Percent Inhibition” value ([38]; pentamidine 1.0E^-5 M) was 90.90%.
With [^3H(G)]pentamidine the “RTISSUE/PLASMA% (mean±SEM) Cerebellum” value [39] was 204.02 (± 35.28) %, the “RTISSUE/PLASMA% (mean±SEM) Choroid plexus” value [39] was 24666.66 (± 4928) % and the “RTISSUE/PLASMA% (mean±SEM) Homogenate” value [39] was 249.41 (± 35.59) %. For the same compound, the “RTISSUE/PLASMA% (mean±SEM) Left brain” value [39] was 152.29 (± 33.48) %, the “RTISSUE/PLASMA% (mean±SEM) Midbrain” value [39] was 181.18 (± 45.30) % and the “RTISSUE/PLASMA% (mean±SEM) Pellet” value [39] was 479.72 (± 72.50) %. The “RTISSUE/PLASMA% (mean±SEM) Pituitary gland” value [39] was 15053.41 (± 3598) %, the “RTISSUE/PLASMA% (mean±SEM) Right brain” value [39] was 115.52 (± 12.46) % and the “RTISSUE/PLASMA% (mean±SEM) Supernatant” value [39] was 123.35 (± 28.45) %. The “Accumulation corrected for vascular space, hippocampus” value [40] was 4.3%, the “Accumulation corrected for vascular space, hypothalamus” value [40] was 7.6% and the “Accumulation corrected for vascular space, pons” value [40] was 8.2%.

— PMC8078842 (PLoS Neglected Tropical Diseases, 2021)
